Data reported in paper PMC10144346, “Novel PD-L1-Targeted Phenyl-Pyrazolone Derivatives with Antioxidant Properties” (Molecules, 2023).

Experiments:
CTLL-2 cells = experiment: CTLL-2 cell proliferation reactivation assay (CyQUANT); format: cell-based; conditions: for IC50: CTLL-2 cells with rhPD-L1 chimera, 72 h, n = 3
Source text: Next, we investigated the capacity of the compound to reactivate proliferation of CTLL-2 cells. These cytotoxic T cells expressing […] are maintained in a dormant state when they are cultivated in the presence of recombinant hPD-L1; their proliferation, monitored by flow-cytometry (using the CyQuant cell proliferation test), is reactivated when they are exposed to a PD-L1 inhibitor, thus mimicking a reactivation of the immune system. […] The replacement of the Me substituent of compound 2 with an ethyl group abolished the capacity of the product to promote CTLL-2 cell proliferation. The same result was obtained with a compound bearing a […] chain instead of the ethyl chain (not shown).
The CyQUANT cell proliferation kit (Thermofischer, Waltham, MA, USA) was used to evaluate the growth of the CTLL-2 cell line (ATCC). Cells were prepared by growing them in the presence or absence of rhPD-L1 chimera (R&D) plus the test compound, and then transferring them to microplates for assay according to manufacturer’s instructions (Molecular Probes C35011). A cell-based standard curve was first established, with the amount of fluorescence correlated to the quantity of cells in the wells. Cells were incubated with increasing concentrations of compounds, over a period 72 h. Positive (nivolumab) and negative (no rhPD-L1 Fc chimera) controls were performed to calibrate the assay. IC50 were determined for the restoration of proliferation by global curve fitting with Graphpad. Experiments were repeated three times and IC50 values averaged.

[1] = molecular target: T1, recombinant human PD-L1 protein (rhPD-L1) (Homo sapiens, UniProt Q9NZQ7); set-up: method as in printed; conditions: background statement of the introduction, ref not given; cited from earlier work
T1 construct: purchased R&D Systems 9049-B7-100
T1 sequence (Q9NZQ7 19-239 limits assumed): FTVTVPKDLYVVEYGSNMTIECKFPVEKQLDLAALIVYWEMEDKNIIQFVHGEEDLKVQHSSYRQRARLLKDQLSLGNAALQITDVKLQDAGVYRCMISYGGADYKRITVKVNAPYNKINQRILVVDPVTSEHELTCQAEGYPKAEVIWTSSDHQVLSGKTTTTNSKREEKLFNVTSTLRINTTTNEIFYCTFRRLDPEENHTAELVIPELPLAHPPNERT

[2] = EPR DPPH free radical scavenging assay; conditions: DPPH 100 µM, compound 2 to 90 µM
Experimental: (§1) We used two electron paramagnetic resonance (EPR)-based assays to compare the antioxidant potency of the compounds. The first assay was a free radical scavenging test with 1,1-diphenyl-2-picrylhydrazyl (DPPH) to monitor the decay in the EPR signal intensity in the presence of the diamagnetic hydrazine compound. The intensity of the typical EPR spectrum of DPPH (100 μM) decreases in the presence of increasing concentration of the test compounds (Figure 6). The attenuation of the EPR signal reflects the antioxidant effect, clearly visible with each compound. From the EPR data, the concentration of the compound required to reduce the signal intensity by 50% (EC50) was calculated. […] The second assay relies on the use of the spin-trapping agent DMPO (5,5-dimethyl-1-pyrroline N-oxide) to monitor the formation of an oxygen centered radical generated under Fenton conditions (hydrogen peroxide plus ferrous ions). We used methanol as a solvent, thus leading to a monitoring of the methoxy radical DMPO/^•OCH3 characterized with a typical six-line EPR signal with hyperfine coupling constants aN = 13.9 G and aH = 8.3 G (Figure 7). The decrease in the EPR signal was evaluated with the different compounds to compare their relative antioxidant capacity. […] For each compound, we calculated the reaction constants (kr in Table 2). The antioxidant capacity of compounds 4–5 was reduced compared to edaravone (1). Nevertheless, compound 5 maintains a significant activity, with a kr value reduced by a factor 2.6 compared to the reference product 1. […] The value obtained with EDA is consistent with that given in the literature and thus validates our measurements.
(§2) An X-band Brüker Elexsys E500 spectrometer operating at 9.86 GHz was used to perform CW-EPR experiments. CW-EPR spectra were recorded at room temperature with a microwave power of 5.024–10.02 mW and a modulation amplitude of 1–2 G that considers non-saturation conditions. The free radical scavenging molecule DPPH (1,1-diphenyl-2-picrylhydrazyl) and spin trap agent DMPO (5,5-dimethyl-1-pyrroline N-oxide) were used to monitor the antioxidant activity of the test compounds. The solution mixture (50 μL) was filled into a glass capillary, placed in 4 mm quartz EPR tubes for analysis. The inhibition of DPPH (%) was calculated with the equation: I (%) = ((I0 − I)/I0) × 100 where I0 is the area of the EPR spectrum of DPPH (control sample), and I the area of the DPPH spectrum with antioxidant compound. The rate constant for the reaction of antioxidant compounds with ^•OCH3 is expressed by the equation: 1/Ra = 1/Rf + ((Kr [AH])/(ka [DMPO] Rf)) where Rf, and Ra indicate EPR signal area (double integration of EPR signal) of ^•OCH3, DMPO/^•OCH3, respectively. ka and [DMPO] are constants, and a plot of 1/Ra vs. [AH] (concentration of antioxidant compound) gives a straight line with 1/Rf as an intercept and kr/(ka[DMPO]Rf) as the slope. The rate constant for the reaction of ^•OCH3 with antioxidant compounds (kr) is expressed by the equation: kr = (ka [DMPO] × slope)/− intercept.

[3] = EPR spin-trapping assay with DMPO under Fenton conditions; conditions: for DMPO kr / DMPO kr/ka: DMPO 1 mM; for DMPO kr: methanol, reaction with •OCH3; for DMPO kr/ka: ka (DMPO-•OH) = 4.3 × 10^9 M^−1 s^−1
Experimental: as §1, §2

[4] = Aldehyde (4-HNE) reactivity by HRMS; conditions: 180 min, 37 °C, [M–H]-
Source text: Edaravone (1) is a reactive molecule known to form adducts with different aromatic aldehydes, such as formylpterin and vanillin [15, 19]. In aqueous solution, it forms mono- and bis-adducts with the aldehyde compound vanillin [20]. […] Here we have compared the reactivity of compounds 1–5 using another aldehyde with a major biological relevance, 4-hydroxynonenal. 4-HNE is a product of lipid peroxidation implicated in the pathogenesis of diverse human diseases, such as diabetes, aging-related diseases and cancers. […] Edaravone is known to react covalently with 4-HNE to form mono-, bis-, and tris-adducts in solution [25]. We used high-resolution mass spectrometry (HRMS) to monitor the formation of the covalent adducts generated with the phenyl-pyrazolones and 4-HNE after 3 h of incubation at physiological temperature in an aqueous buffer. The formation of mono-, bis-, and tris-adducts was detected unambiguously with each compound (Figure 8). A reaction scheme is represented in Figure 9 for compound 5. In each case, the pyrazolone compound (nucleophile) easily reacted with 4-HNE to generate the different species, each characterized by their corresponding mass (m/z), the ring-double-bond value (rdb, valence values of elements in structure), the signal intensity and the correspondence with the theoretical m/z value (Δppm) (Table 3). The different species can be easily identified, with the isotopic pattern characteristic for the presence of chlorine and carbon atoms (chlorine and carbon cluster isotopes). In all cases, the species formed were identified without any ambiguity from their relative abundances. […] These values were in accordance with the theorical abundances, calculated from the exactive software for the isotopic pattern of the ions from m/z = 489.13606 to m/z = 494.13323.
High resolution mass spectrometry (HRMS) and spectra were recorded with an Exactive Plus mass spectrometer (Thermo Fisher Scientific, San Jose, CA, USA) equipped with a heated electrospray ionisation probe (HESI -II). Each mass analyzer was calibrated with Pierce®ESI positive and negative ion calibration solutions each week (Thermo Fisher Scientific). Optimization of voltages, gas values, and temperatures applied for ion transfer and ionization was performed in negative mode. The tuning parameters were optimized separately with reaction mixture obtained from reaction of nucleophile with the aldehyde. This was completed by infusing first individual solutions of each nucleophile or the aldehyde at 10 pmol/µL. Each reaction mixture was performed during 180 min at 37 °C with the compound at 0.5 mM in phosphate buffer 10 mM, pH = 7.4 and then the reaction mixture was diluted 1/400 in MeOH. The solution was injected with a syringe at a flow rate of 10 µL/min. […]

[5] = molecular target: T2, PD-L1 dimers (His-labeled PD-L1 titrated with unlabeled His-PD-L1) (Homo sapiens, UniProt Q9NZQ7); experiment: MST dimerization binding assay; conditions: test compound 1 µM, labeled His-PD-L1 10 nM
T2 construct: purchased Biotechne 9049-B7-100
T2 sequence (Q9NZQ7 19-239 limits assumed): as above
Source text: These observations led us to prioritize compound 5 as a hit compound owing to its potent capacity to bind to PD-L1, to interrupt PD-1/PD-L1 signaling and to reactivate CTLL-2 cell proliferation. Moreover, we selected this compound for an additional reason: its unique capacity to promote dimerization of rhPD-L1. This later property was evidenced using a specific dimerization binding assay which monitors the formation of PD-L1 dimers from a His-labeled PD-L1 protein by MST. The use of a PD-L1 protein with a polyhistidine (6xHis) tag at the C-terminus allows the non-covalent, stable, and selective labeling of the protein with a red fluorescent dye, to facilitate the formation of PD-L1 dimers. […] There is no doubt that this compound is a robust inhibitor of the PD-1/PD-L1 checkpoint.
A labeled His-PD-L1 protein was titrated against an unlabeled His-PD-L1 protein with or without compounds of interest. The test compound (1 µM) and the His-labeled PD-L1 protein (10 nM) are kept constant whereas the unlabeled His-PD-L1 (1 µM) varies with a serial 1:1 ratio of 16 gradients. MST was performed using the same instrument as mentioned above. His-PD-L1 protein (Biotechne # 9049-B7-100) was diluted to 200 nM in commercial PBS-T buffer and was labeled as indicated above. The RED-tris-NTA dye was diluted in PBS-T to 100 nM. The mix was incubated at room temperature in the dark for 30 min. Capillaries were filled individually.

[6] = molecular target: T3, interaction between PD-L1 and PD-1 (Homo sapiens, UniProt Q9NZQ7); experiment: FRET reporter assay, SHP-2-CFP / PD-1-YFP in CHO-K1 cells activated by rhPD-L1; format: cell-based; conditions: CHO-K1 cells co-transfected PD1-SHP2, PD-L1 10 µM, n = 5, read-out: Bioactivity (IC50), block of PD-L1/PD-1 interaction in cells
T3 construct: expressed in transfected cells; host or cells: CHO-K1
T3 sequence (Q9NZQ7 19-239 limits assumed): as above

[7] = molecular target: T1, recombinant human PD-L1 protein (rhPD-L1); experiment: Microscale thermophoresis (MST) binding assay; conditions: rhPD-L1, n = 3, 1:1 binding model
Solubility = format: physicochemical
[8] = Metabolic stability in mouse liver microsomes; format: in vitro ADME
Source text: The metabolic stability of the compounds in mice liver microsomes was investigated using liver microsomes from male mice (BD Gentest™) with propranolol as a positive control, as described previously. Mouse plasma CD-1 was used to investigate the plasma stability of the molecules, with enalapril as a positive control, as described recently.

Molecule	IC50 (CTLL-2 cells) [µM]	Binding to PD-L1 [1]	EC50 [2] [µM]	DMPO kr [3]	DMPO kr/ka [3]	HRMS intensity of remaining 4-HNE [4]	IC50 (CTLL-2 cells; Mus musculus, CTLL-2, 72 h) [µM]	melting point [°C]	Promotion of PD-L1 dimerization [5]	IC50 [6] [µM]	Kd [7] [µM]	Reactivation of CTLL-2 cell proliferation (CTLL-2 cells; CTLL-2 cells with rhPD-L1)	Solubility compared to compound 3 (Solubility)	Microsomal stability compared to compound 3 [8]	kr value reduced by a factor compared to reference product 1 ([3]; DMPO assay)
COc1nc(OCc2cccc(-c3ccccc3)c2C)ccc1CNCCNC(C)=O [BMS-202, reference compound]	0.053 ± 0.017	–	–	–	–	–	–	–	–	–	–	–	–	–	–
CC1=NN(c2ccccc2)C(=O)C1 [Compound 1, edaravone, reference compound]	–	does not bind to PD-L1	35.8	25.9 10^10 M^−1 s^−1	60	1.63 × 10^5	–	–	–	–	–	–	–	–	–
CC1=NN(c2ccc(Cl)cc2Cl)C(=O)C1 [Compound 2]	–	–	36.5	19.3 10^10 M^−1 s^−1	45	–	0.053 ± 0.011	–	–	–	–	–	–	–	–
COc1ccccc1C1=NN(c2ccc(Cl)cc2Cl)C(=O)C1 [Compound 3, 1-(2,4-Dichlorophenyl)-3-(2-methoxyphenyl)-1H-pyrazol-5(4H)-one]	0.079 ± 0.007	–	34	–	–	1.92 × 10^5	0.07	188	inactive	–	–	–	–	–	–
CCC1=NN(c2ccc(Cl)cc2Cl)C(=O)C1 [Compound 4, 1-(2,4-dichlorophenyl)-3-ethyl-1H-pyrazol-5(4H)-one]	–	–	40.9	4.40 10^10 M^−1 s^−1	10	1.01 × 10^5	–	160	inactive	0.012 ± 0.005	0.019 ± 0.003	inactive	–	–	–
Oc1cc(-c2ccccc2F)nn1-c1ccc(Cl)cc1Cl [Compound 5, 1-(2,4-Dichlorophenyl)-3-(2-fluorophenyl)-1H-pyrazol-5-ol]	–	–	38.2	9.74 10^10 M^−1 s^−1	23	2.11 × 10^5	0.043 ± 0.009	229	promoted the dimerization of PD-L1 in a dose-dependent manner	0.074 ± 0.007	0.027 ± 0.004	–	slightly improved	slightly improved	2.6
atezolizumab	–	–	–	–	–	–	–	–	–	0.047 ± 0.011	–	–	–	–	–
